This note sets out measurements from patent publication US20030225152A1, “3-(Arylamino)methylene-1, 3-dihydro-2h-indol-2-ones as kinase inhibitors” (priority 2001, published 2003).

pIC50: −log10 of the molar value.

In test [1] the target is T1, cytoplasmic domain of the human VEGF receptor (VEGFR-2) (Homo sapiens, UniProt P35968).
T1 construct: The cytoplasmic domain of the human VEGF receptor (VEGFR-2) was expressed as a Histidine-tagged fusion protein; Histidine tag
Put plainly: KDR Assay. The class given is biochemical. The conditions noted are these: His-VEGFR-2; 3.6 μM ATP. A digest of the protocol: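 His-tagged human VEGFR-2 cytoplasmic domain from baculovirus-infected insect cells, acting on poly-Glu-Tyr (4:1)-coated plates with 3.6 μM ATP in Hepes pH 7.4 with MgCl2/MnCl2 and 5% final DMSO, 10 min at 25 °C. Phosphotyrosine detected by peroxidase-conjugated antibody ELISA at 492 nm; IC50 from blank-subtracted OD versus concentration.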

For test [2], the system named is VEGF induced increases in intracellular calcium levels in HUVEC (human umbilical vein endothelial cells). The test can be described thus: VEGF Stimulated Ca++ Signal in vitro (FLIPR). The test is classed as cell-based. The conditions noted are these: VEGF 5 ng/mL; for pIC50: 0.01 to 10.0 μM. In short, it runs like this:
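HUVEC loaded with Fluo-4 (45 min, 37° C.), washed, then pre-incubated 30 min with compound (10 μM single dose or 0.01–10.0 μM; 0.1% DMSO) before 5 ng/mL VEGF. Fluorescence at 516 nm read by FLIPR; IC50 from % inhibition of max-min VEGF response.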

T1 sequence (P35968 786-1356): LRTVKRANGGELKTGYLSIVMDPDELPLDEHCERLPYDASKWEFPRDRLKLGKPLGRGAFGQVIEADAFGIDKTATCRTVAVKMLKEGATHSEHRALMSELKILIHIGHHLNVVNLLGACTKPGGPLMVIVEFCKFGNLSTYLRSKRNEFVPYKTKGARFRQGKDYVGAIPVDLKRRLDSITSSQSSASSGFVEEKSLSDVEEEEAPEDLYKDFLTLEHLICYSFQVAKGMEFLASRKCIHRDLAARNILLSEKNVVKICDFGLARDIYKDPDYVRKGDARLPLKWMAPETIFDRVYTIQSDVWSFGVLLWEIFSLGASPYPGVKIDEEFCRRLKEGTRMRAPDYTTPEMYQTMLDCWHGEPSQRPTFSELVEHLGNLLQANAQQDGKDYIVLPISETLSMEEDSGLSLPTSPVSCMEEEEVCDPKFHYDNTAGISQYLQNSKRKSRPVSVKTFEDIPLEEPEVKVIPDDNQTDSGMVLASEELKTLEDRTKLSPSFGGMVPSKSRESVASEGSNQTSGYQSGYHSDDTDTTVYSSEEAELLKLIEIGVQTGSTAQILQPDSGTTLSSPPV

As for `Cc1cccc2c1C(=CNc1ccc(C#N)cc1)C(=O)N2` [Example 128, 4-[(4-Methyl-2-oxo-1,2-dihydro-indol-3-ylidenemethyl)-amino]-benzonitrile], in test [1], the pIC50 (as a rule, the negative decadic logarithm of the IC50, by convention in mol/L) was 6.34. Also, in test [2] (Homo sapiens), the inhibition (usually the change of the read-out against control, counted positive when it falls) at 10 µM was 42.9% and the negative-log IC50 (pIC50) was 5.08.
Consider `CN1CCCC(COc2ccc(NC=C3C(=O)Nc4ccc(Cl)cc43)cc2)C1` (centres unmarked) [Example 283, 5-Chloro-3-{[4-(1-methyl-piperidin-3-ylmethoxy)-phenylamino]-methylene}-1,3-dihydro-indol-2-one], for which the pIC50 was 6.82 in test [1], 6.03 in test [2] and ≥ 6.00 in test [2] (Homo sapiens).
In turn, `COc1cc(NC=C2C(=O)Nc3ccccc32)cc(OC)c1` [Example 16, 3-[(3,5-Dimethoxy-phenylamino)-methylene]-1,3-dihydro-indol-2-one] had a pIC50 in test [1] of 5.90. In test [2] (Homo sapiens), the inhibition at 10 µM amounted to 50% and the pIC50 was ≤ 5.00.
In the same order, the values of `Nc1ccc(NC=C2C(=O)Nc3ccccc32)cc1` [Example 180, 3-[(4-Amino-phenylamino)-methylene]-1,3-dihydro-indol-2-one] are 6.36, 98.3% and 5.99.
Molecule `Cc1cccc2c1C(=CNc1ccc(CCO)cc1)C(=O)N2` [Example 113, 3-{[4-(2-Hydroxy-ethyl)-phenylamino]-methylene}-4-methyl-1,3-dihydro-indol-2-one] gave a pIC50 in test [1] of 6.70. The inhibition at 10 µM in test [2] (Homo sapiens) came out at 97.5%.
With `Cc1cccc2c1C(=CNc1ccc(CCC(=O)O)cc1)C(=O)N2` [Example 145, 3-{4-[(4-Methyl-2-oxo-1,2-dihydro-indol-3-ylidenemethyl)-amino]-phenyl}-propionic acid], the pIC50 in test [1] is 6.72; in test [2], 6.23; in test [2] (Homo sapiens), ≥ 6.00. Moreover, the inhibition at 10 µM in test [2] (Homo sapiens) is 98.7%.
In the case of `O=C1Nc2ccc(Cl)cc2C1=CNc1ccc(OCCN2CCCCC2)cc1` [Example 262, 5-Chloro-3-{[4-(2-piperidin-1-yl-ethoxy)-phenylamino]-methylene}-1,3-dihydro-indol-2-one], the results for the pIC50 in test [1], in test [2] and in test [2] (Homo sapiens) were 6.68, 6.06 and ≥ 6.00, respectively.
As for `CCc1ccc(NC=C2C(=O)Nc3ccccc32)cc1` [Example 5, 3-[(4-Ethyl-phenylamino)-methylene]-1,3-dihydro-indol-2-one], the values for the pIC50 in test [1] and in test [2] (Homo sapiens) were 6.32 and 5.74, respectively. In addition, the inhibition at 10 µM in test [2] (Homo sapiens) is 77.3%.
Take `O=C1Nc2cccc(F)c2C1=CNc1ccc(NCCCN2CCOCC2)cc1` [Example 301, 4-Fluoro-3-{[4-(3-morpholin-4-yl-propylamino)-phenylamino]-methylene}-1,3-dihydro-indol-2-one]: the pIC50 in test [1] was 6.57; in test [2], 6.11; in test [2] (Homo sapiens) it was ≥ 6.00.
In the same order, the values of `O=C1Nc2cccc(F)c2C1=CNc1ccc(CCN2CCOCC2)cc1` [Example 309, 4-Fluoro-3-{[4-(2-morpholin-4-yl-ethyl)-phenylamino]-methylene}-1,3-dihydro-indol-2-one] are 6.64, 6.17 and ≥ 6.00.
Consider `CCc1cccc(NC=C2C(=O)Nc3ccc(F)cc32)c1` [Example 176, 3-[(3-Ethyl-phenylamino)-methylene]-5-fluoro-1,3-dihydro-indol-2-one], for which the pIC50 in test [1] is 6.10. In test [2] (Homo sapiens), the inhibition at 10 µM stood at 67.9% and the pIC50 is 5.60.
In the case of `O=C1Nc2cccc(F)c2C1=CNc1ccc(CN2CCCCC2)cc1` [Example 257, 4-Fluoro-3-[(4-piperidin-1-ylmethyl-phenylamino)-methylene]-1,3-dihydro-indol-2-one], the pIC50 in test [1] is 6.29; in test [2] (Homo sapiens), 5.79.
As to `CCN(CC)c1ccc(NC=C2C(=O)Nc3ccccc32)cc1` [Example 188, 3-[(4-Diethylamino-phenylamino)-methylene]-1,3-dihydro-indol-2-one], the pIC50 was 6.74 in test [1], 6.28 in test [2] and ≥ 6.00 in test [2] (Homo sapiens). The inhibition at 10 µM in test [2] (Homo sapiens) turned out to be 98%.
In the same order, the values of `O=C1Nc2ccccc2C1=CNc1ccc(OCCCN2CCSCC2)cc1` [Example 225, 3-{[4-(3-Thiomorpholin-4-yl-propoxy)-phenylamino]-methylene}-1,3-dihydro-indol-2-one] are 6.54, 6.25, ≥ 6.00 and 95.7%.
In the same order, the values of `Cc1ccc(NC=C2C(=O)Nc3ccccc32)cc1N` [Example 212, 3-[(3-Amino-4-methyl-phenylamino)-methylene]-1,3-dihydro-indol-2-one] are 6.30, 6.09, ≥ 6.00 and 96.5%.
In turn, `O=C1Nc2ccc(Cl)cc2C1=CNc1ccc(NCCN2CCOCC2)cc1` [Example 245, 5-Chloro-3-{[4-(2-morpholin-4-yl-ethylamino)-phenylamino]-methylene}-1,3-dihydro-indol-2-one] showed a pIC50 in test [1] of 6.85. The inhibition at 10 µM in test [2] (Homo sapiens) is 95.5%.
`CCN(CC)CCCOc1ccc(NC=C2C(=O)Nc3ccccc32)cc1F` [Example 248, 3-{[4-(3-Diethylamino-propoxy)-3-fluoro-phenylamino]-methylene}-1,3-dihydro-indol-2-one]: the pIC50 in test [1] is 6.20; in test [2] it was 6.15; in test [2] (Homo sapiens) it was ≥ 6.00.
`O=C1Nc2ccccc2C1=CNc1cccc(CO)c1` [Example 184, 3-[(3-Hydroxymethyl-phenylamino)-methylene]-1,3-dihydro-indol-2-one]: the pIC50 in test [1] is 6.21; in test [2] (Homo sapiens), 5.81. Moreover, the inhibition at 10 µM in test [2] (Homo sapiens) came out at 98.2%.
On the same counts, the results for `Cc1cccc2c1C(=CNc1ccc(O)cc1)C(=O)N2` [Example 96, 3-[(4-Hydroxy-phenylamino)-methylene]-4-methyl-1,3-dihydro-indol-2-one] are 6.70, 5.77 and 97%.
The molecule `CCN(CC)CCCOc1ccc(NC=C2C(=O)Nc3ccc(F)cc32)cc1` [Example 233, 3-{[4-(3-Diethylamino-propoxy)-phenylamino]-methylene}-5-fluoro-1,3-dihydro-indol-2-one] gave a pIC50 in test [1] of 6.72. For the same molecule, the inhibition at 10 µM in test [2] (Homo sapiens) worked out at 96.9%.
For the molecule `Cc1cccc2c1C(=CNc1cccc(CO)c1)C(=O)N2` [Example 185, 3-[(3-Hydroxymethyl-phenylamino)-methylene]-4-methyl-1,3-dihydro-indol-2-one], the pIC50 in test [1] is 6.48; in test [2], 6.06; in test [2] (Homo sapiens) it was ≥ 6.00. Also, the inhibition at 10 µM in test [2] (Homo sapiens) was 98.4%.
Turning to `Cc1cccc2c1C(=CNc1ccc3cc[nH]c3c1)C(=O)N2` [Example 97, 3-[(1H-Indol-6-ylamino)-methylene]-4-methyl-1,3-dihydro-indol-2-one], the pIC50 was 6.70 in test [1] and 5.73 in test [2] (Homo sapiens). Also, the inhibition at 10 µM in test [2] (Homo sapiens) was determined as 96.5%.
On the same counts, the results for `COc1cccc(NC=C2C(=O)Nc3ccc(Cl)cc32)c1` [Example 57, 5-Chloro-3-[(3-methoxy-phenylamino)-methylene]-1,3-dihydro-indol-2-one] are 5.73, 5.23 and 60%.
In the same order, the values of `Cc1cccc2c1C(=CNc1cccc(O)c1)C(=O)N2` [Example 60, 3-[(3-Hydroxy-phenylarmino)-methylene]-4-methyl-1,3-dihydro-indol-2-one] are 6.55, 5.88 and 94%.
In the same order, the values of `CCN(CC)Cc1cc(NC=C2C(=O)Nc3ccccc32)ccc1O` [Example 160, 3-[(3-Diethylaminomethyl-4-hydroxy-phenylamino)-methylene]-1,3-dihydro-indol-2-one] are 6.15, 5.89 and 91.4%.
`COc1ccc(NC=C2C(=O)Nc3cccc(C)c32)c(F)c1` [Example 135, 3-[(2-Fluoro-4-methoxy-phenylamino)-methylene]-4-methyl-1,3-dihydro-indol-2-one] showed a pIC50 in test [1] of 5.11. The inhibition at 10 µM in test [2] (Homo sapiens) stood at 28%.
As to `O=C1Nc2ccccc2C1=CNc1ccc(CO)cc1` [Example 88, 3-[(4-Hydroxymethyl-phenylamino)-methylene]-1,3-dihydro-indol-2-one], the pIC50 in test [1] is 6.39; in test [2], 6.00; in test [2] (Homo sapiens) it was ≥ 6.00. In addition, the inhibition at 10 µM in test [2] (Homo sapiens) stood at 97.5%.
On the same counts, the results for `O=C1Nc2ccc(F)cc2C1=CNc1ccc2cn[nH]c2c1` [Example 163, 5-Fluoro-3-[(1 h-indazol-6-ylamino)-methylene]-1,3-dihydro-indol-2-one] are 6.49, 6.07, ≥ 6.00 and 95.3%.
`O=C1Nc2ccccc2C1=CNc1cccc(S(=O)(=O)NCCCO)c1` [Example 193, N-(3-Hydroxy-propyl)-3-[(2-oxo-1,2-dihydro-indol-3-ylidenemethyl)-amino]-benzenesulfonamide]: in test [1], the pIC50 was 5.61. In test [2] (Homo sapiens), the inhibition at 10 µM came to 81.5% and the pIC50 is 5.32.
